One may read the EC50 as the midpoint of the concentration-response curve. As usually defined, the IC50 is the concentration needed to halve the response being measured. What is called Kd is the equilibrium constant for the complex coming apart.

Data on twelve compounds can be found in patent US20240368232A1, “ANTIVIRAL LARAZOTIDE DERIVATIVES” (priority 2021, published 2024).

Several values for one entry are separate records, joined by “and”; a condition that tells them apart may be missing. Identical values can stand only once. Like-named read-outs stand apart in the source and are kept apart here. Square brackets hold non-standard residues; d marks the D form. Peptide text beside a SMILES is read from it. * marks the point of attachment. ξ: configuration not given here. ξTic = O=C(O)C1Cc2ccccc2CN1; ξY = NC(Cc1ccc(O)cc1)C(=O)O; Heptanoyl = CCCCCCC(=O)*; Boc = CC(C)(C)OC(=O)*

For data set [1], the system named is TK^− VZV strain 07-1. Nature of the data set: microbe, parasite or virus in culture. To be noted: Human alphaherpesvirus 3, HEL, read-out: Antiviral activity EC50 TK^− VZV strain 07-1., VZV in HEL cells; plaque formation reduced by 50%; 20 PFU.
Data set [2] relates to TK^− VZV strain 07-1. To be noted: read-out: Antiviral activity EC50 TK^− VZV strain 07-1.; VZV in HEL cells; plaque formation reduced by 50%; 20 PFU.
The test system of data set [3] is TK^+ VZV strain OKA. To be noted: read-out: Antiviral activity EC50 TK^+ VZV strain OKA; VZV in HEL cells; plaque formation reduced by 50%; 20 PFU.
Data set [4] relates to TK^+ VZV strain OKA. Description: microbe, parasite or virus in culture. To be noted: Human alphaherpesvirus 3, HEL, read-out: Antiviral activity EC50 TK^+ VZV strain OKA, VZV in HEL cells; plaque formation reduced by 50%; 20 PFU.
Data set [5] concerns human embryonic lung (HEL) cells. Nature of the data set: Cytotoxicity, cell morphology (MCC), HEL cells. In kind it is cell-based.
The test system of data set [6] is cytomegalovirus (HCMV) AD-169 strain. Description: microbe, parasite or virus in culture. To be noted: Human betaherpesvirus 5, AD169, HEL, read-out: Antiviral activity EC50 AD-169 strain, HCMV in HEL cells; plaque formation reduced by 50%; 100 PFU.
Data set [7] shares this test system. To be noted: read-out: Antiviral activity EC50 AD-169 strain; HCMV in HEL cells; plaque formation reduced by 50%; 100 PFU.
The subject of data set [8] is Vero cells.
For data set [9], the system named is SARS-COV-2 UK (NVDBB) strain. Description: microbe, parasite or virus in culture. To be noted: Severe acute respiratory syndrome coronavirus 2, Vero, read-out: Antiviral activity EC50 UK (NVDBB) strain Vero cells.
Data set [10] concerns SARS-COV-2 1074 # 2 strain. Description: microbe, parasite or virus in culture. To be noted: Severe acute respiratory syndrome coronavirus 2, Vero, read-out: Antiviral activity EC50 1074 # 2 strain Vero cells.
The next data set in a line: in vitro. To be noted: African green monkey.
Data set [11] has as its system SARS-COV-2 1074 # 2 strain.
For data set [12], the system named is Vero cells. Type of data set: cell-based.
For data set [13], the system named is SARS-COV-2 UK (NVDBB) strain.
Data set [14] addresses T1, SARS-COV-2 M^pro (3264-3569aa) (Severe acute respiratory syndrome coronavirus 2, UniProt P0DTD1).
T1 construct: SARS-COV-2 M^pro (3264-3569aa); purchased Proteros WTH_20_1
Description: FRET assay for TRIP on SARS-COV-2 main protease. Type of data set: biochemical.

Data set [15] relates to cytomegalovirus (HCMV) Davis strain. To be noted: read-out: Antiviral activity EC50 Davis strain; HCMV in HEL cells; plaque formation reduced by 50%; 100 PFU.
For the next data set, the target named is M^pro enzyme (Severe acute respiratory syndrome coronavirus 2, UniProt P0DTD1). To be noted: MM-GBSA, literature Di Micco et al. 2021; cited from earlier work.

In the case of `O=c1[nH]c(=O)n([C@H]2C[C@H](O)[C@@H](CO)O2)cc1/C=C/Br` [Brivudine (BVDU), Brivudine, reference compound], the EC50 came to 5.89 µM in the data set with TK^− VZV strain 07-1 [1], 4.53 µM with TK^− VZV strain 07-1 [2], 0.17 µM with TK^+ VZV strain OKA [3] and 0.27 µM with TK^+ VZV strain OKA [4]. In addition, in data set [5] (Table 4 (VZV experiment)), the “Cytotoxicity Cell morphology (MCC)” value is reported as above 300.3 μM.

Take `Nc1ccn(C[C@@H](CO)OCP(=O)(O)O)c(=O)n1` [Cidofovir (CDV), Cidofovir, reference compound]: the EC50 was 1.39 µM in data set [6] and 1.08 µM in data set [7]. Also, in data set [5] (Table 3 (HCMV experiment)), the “Cytotoxicity Cell morphology (MCC)” value was 317 μM.

In the case of `CCC(CC)COC(=O)[C@H](C)N[P@](=O)(OC[C@H]1O[C@@](C#N)(c2ccc3c(N)ncnn23)[C@H](O)[C@@H]1O)Oc1ccccc1` [Remdesivir], the CC50 with Vero cells [8] (African green monkey) was 59.1 µM; in “in vitro” (Cytotoxicity Cell growth (CC50)), above 80 µM. For the same compound, the EC50 in data set [9] was 0.19 µM; in [10], 1.01 µM; in data set [11] (read-out: Antiviral activity EC50 1074 # 2 strain Vero cells), 1.17 µM.

For the compound `NC(=O)c1nc(F)cnc1O` [T-705, reference compound], in the data set with Vero cells [8], the “Cytotoxicity Cell growth (CC50)” value is above 200 µg/mL. Besides, the “Cytotoxicity Cell morphology (MCC)” value with Vero cells [12] is listed as above 200 μg/ml. Besides, in data set [11], the “Antiviral activity EC50 1074 # 2 strain Vero cells” value is 76.15 µg/mL and 81.79 µg/mL. Besides, the “Antiviral activity EC50 UK (NVDBB) strain Vero cells” value in data set [13] stood at 23.39 µg/mL.

Regarding `CC(C)C[C@H](C=O)NC(=O)[C@H](Cc1ccccc1)NC(=O)C1Cc2ccccc2CN1` (stereo partly drawn) [TRIP 3] (H-[ξTic]-Phe-[dL]-aldehyde), the IC50 in [14] was above 425 µM.

As to `CC(=O)NCC(=O)N[C@H](Cc1ccccc1)C(=O)N[C@H](C=O)Cc1c[nH]cn1` [TRIP 5] (Ac-Gly-[dF]-His-aldehyde), the EC50 in the data set with TK^− VZV strain 07-1 [2] is above 100 µM; in the data set on TK^+ VZV strain OKA [3] it was above 100 µM; in data set [15] it was above 100 µM; in [7], above 20 µM. Besides, in the data set “in vitro”, the CC50 is above 100 µM. The same compound had a concentration for half-maximal inhibition (IC50) in data set [14] of 2.51 ± 0.24 µM. The same compound showed an equilibrium dissociation constant (Kd) in data set [14] of 1.26 ± 0.12 µM. Further, the “Cytotoxicity Cell morphology (MCC)” value in data set [5] (Table 3 (HCMV experiment)) is 100 μM; in data set [5] (Table 4 (VZV experiment)), above 100 μM.

In turn, `CC(=O)NCC(=O)NC(Cc1ccc(O)cc1)C(=O)N[C@H](C=O)Cc1c[nH]cn1` (stereo partly drawn) [TRIP 23] (Ac-Gly-[ξY]-His-aldehyde) showed a half-inhibitory concentration (IC50) in data set [14] of 198 µM.

As for `O=CCNC(=O)[C@@H](Cc1c[nH]cn1)NC(=O)[C@H](Cc1c[nH]cn1)NC(=O)C1Cc2ccccc2CN1` (stereo partly drawn) [TRIP 41] (H-[ξTic]H[dH]G-aldehyde), the IC50 in data set [14] is above 425 µM.

In data set [14], `CC(=O)NCC(=O)N[C@@H](Cc1ccccc1)C(=O)N[C@H](Cc1c[nH]cn1)C(=O)NCC=O` [TRIP 42] (Ac-GF[dH]G-aldehyde) registered an IC50 above 425 µM.

As for `CC(C)(C)OC(=O)NCC(=O)N[C@H](Cc1ccccc1)C(=O)N[C@H](C=O)Cc1c[nH]cn1` [TRIP 43] (Boc-Gly-[dF]-His-aldehyde), the concentration for a half-maximal effect (EC50) was above 100 µM with TK^− VZV strain 07-1 [2], above 100 µM in the data set with TK^+ VZV strain OKA [3], above 100 µM in [15] and above 20 µM in data set [7]. Moreover, the CC50 in “in vitro” is above 100 µM. For the same compound, the “Cytotoxicity Cell morphology (MCC)” value in [5] (Table 3 (HCMV experiment)) is on record as 100 μM; in [5] (Table 4 (VZV experiment)), above 100 μM.

`CCCCCCC(=O)NCC(=O)N[C@H](Cc1ccccc1)C(=O)N[C@H](C=O)Cc1c[nH]cn1` [TRIP 44] (Heptanoyl-Gly-[dF]-His-aldehyde): the EC50 in the data set with TK^− VZV strain 07-1 [2] was above 100 µM; with TK^+ VZV strain OKA [3] it was above 100 µM; in data set [15], above 100 µM; in data set [7], above 20 µM. This compound displayed a CC50 in “in vitro” above 100 µM. The entries for the “Cytotoxicity Cell morphology (MCC)” value in [5] (Table 3 (HCMV experiment)) and in [5] (Table 4 (VZV experiment)) were 100 μM and above 100 μM, respectively.

With larazotide acetate [AT1001 acetate], the “docking in the catalytic domain of the M^pro enzyme” value at M^pro enzyme was “docks extremely well”.
